One test deals with Nicotiana benthamiana. In words: Test Example 6: growth promotion under low-temperature stress by hydroponics of Nicotiana benthamiana, 0.1 ppm. Type of test: in vivo. Conditions: 0.1 ppm in medium, low-temperature stress 7 days at 1.5±1.0° C., green leaf area 3 days later, equation (1). The method, boiled down: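 Seeds grown in half-strength Murashige–Skoog medium (pH 5.8), compound at 0.1 ppm (0.1% DMSO), 7 days at 22 °C, 4,000 lux, 16 h day; then 7 days at 1.5±1.0 °C, 2,000 lux; then 3 days recovery at 22 °C. Green leaf area imaged; relative leaf area versus DMSO controls before and after cold, ≥5 scored as mitigating.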

Test [1] relates to Rice (variety: Nipponbare). Put plainly: Test Example 3: promotion of root growth by hydroponics of rice, 0.1 ppm. Type of test: in vivo. The conditions noted are these: Oryza sativa, hydroponic solution containing the test compound at 0.1 ppm, average of 4 or 5 individuals, read-out: Relative value of length of seminal root (%-untreated control plot). In outline: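 Surface-sterilised Nipponbare seeds were germinated 3 days in the dark at 28 °C in ¼-strength Hoagland solution containing 0.1 ppm compound; DMSO-only solution served as control. Seedlings were then grown 3 days hydroponically at 26 °C, 4,000 lux, 16 h day. Seminal root length was measured and averaged over 4–5 plants.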

Some results are limits rather than exact numbers.

Regarding `COC(=O)c1cc2cc(C(F)(F)F)ccc2o1` [Compound 3, methyl 5-(trifluoromethyl)benzofuran-2-carboxylate], the relative leaf area (% of untreated control) at 0.1 ppm in the test with Nicotiana benthamiana was ≥ 5%.

For the molecule `COC(=O)c1oc2ccc(C(F)(F)F)cc2c1C` [Compound 33], in test [1], the change in vivo at 0.1 ppm was > 5%.

On to `Cc1c(C(=O)O)oc2ccc(C(F)(F)F)cc12` [Compound 34], for which the change in vivo at 0.1 ppm in test [1] is > 5%.

As to `Cc1c(C(=O)O)oc2ccccc12` [Compound 36], the relative leaf area (% of untreated control) at 0.1 ppm with Nicotiana benthamiana is ≥ 5%. Further, the change in vivo at 0.1 ppm in test [1] is > 5%.

For `COC(=O)c1oc2ccccc2c1C` [Compound 37], the change in vivo at 0.1 ppm in test [1] was > 5%.

For `COC(=O)c1oc2ccccc2c1NC(=O)C(F)(F)F` [Compound 39], the relative leaf area (% of untreated control) at 0.1 ppm in the test on Nicotiana benthamiana is ≥ 5%.

In the case of `COC(=O)c1oc2ccccc2c1NC(C)=O` [Compound 40], the change in vivo at 0.1 ppm in test [1] is > 5%.

As to `COC(=O)c1oc2ccccc2c1N(C(C)=O)C(C)=O` [Compound 41], in test [1], the change in vivo at 0.1 ppm is > 5%.

On to `O=C(O)c1cc2c(C(F)(F)F)cccc2o1` [Compound 43], for which, in the test on Nicotiana benthamiana, the relative leaf area (% of untreated control) at 0.1 ppm is ≥ 5%. The change in vivo at 0.1 ppm in test [1] is > 5%.

In the case of `CCOC(=O)c1cc2c(C(F)(F)F)cccc2o1` [Compound 44], in test [1], the change in vivo at 0.1 ppm was > 5%.

Take `COC(=O)c1cc2c(C(F)(F)F)cccc2o1` [Compound 45]: the relative leaf area (% of untreated control) at 0.1 ppm in the test on Nicotiana benthamiana is ≥ 5%. For the same molecule, the change in vivo at 0.1 ppm in test [1] is > 5%.

On to `COC(=O)c1oc2ccc(C(F)(F)F)cc2c1O` [Compound 50], for which the relative leaf area (% of untreated control) at 0.1 ppm in the test on Nicotiana benthamiana is ≥ 5%. The change in vivo at 0.1 ppm in test [1] was > 5%.

As for `NC(=O)c1cc2cc(C(F)(F)F)ccc2o1` [Compound 51], the change in vivo at 0.1 ppm in test [1] was > 5%.

Consider `CNC(=O)c1cc2cc(C(F)(F)F)ccc2o1` [Compound 52], for which, in the test with Nicotiana benthamiana, the relative leaf area (% of untreated control) at 0.1 ppm is ≥ 5%. In addition, the change in vivo at 0.1 ppm in test [1] is > 5%.

Take `O=C(Nc1ccccc1)c1cc2cc(C(F)(F)F)ccc2o1` [Compound 53]: the relative leaf area (% of untreated control) at 0.1 ppm with Nicotiana benthamiana was ≥ 5%. Also, the change in vivo at 0.1 ppm in test [1] was > 5%.

Consider `O=C(NCc1ccccc1)c1cc2cc(C(F)(F)F)ccc2o1` [Compound 54], for which the relative leaf area (% of untreated control) at 0.1 ppm in the test with Nicotiana benthamiana was ≥ 5%. For the same molecule, the change in vivo at 0.1 ppm in test [1] is > 5%.

Regarding `O=C(Oc1ccccc1)c1cc2cc(C(F)(F)F)ccc2o1` [Compound 55], the change in vivo at 0.1 ppm in test [1] was > 5%.

Consider `O=C(OCc1ccccc1)c1cc2cc(C(F)(F)F)ccc2o1` [Compound 56], for which the relative leaf area (% of untreated control) at 0.1 ppm in the test with Nicotiana benthamiana is ≥ 5%. Besides, in test [1], the change in vivo at 0.1 ppm was > 5%.

`COC(=O)c1oc2ccc(C(F)(F)F)cc2c1N(C)C` [Compound 62]: in the test with Nicotiana benthamiana, the relative leaf area (% of untreated control) at 0.1 ppm was ≥ 5%.

Consider `COC(=O)c1oc2ccc(C(F)(F)F)cc2c1NC(C)=O` [Compound 63], for which, in the test on Nicotiana benthamiana, the relative leaf area (% of untreated control) at 0.1 ppm is ≥ 5%.

Turning to `COC(=O)c1oc2ccc(C(F)(F)F)cc2c1N(C(C)=O)C(C)=O` [Compound 64], the relative leaf area (% of untreated control) at 0.1 ppm with Nicotiana benthamiana was ≥ 5%. Also, in test [1], the change in vivo at 0.1 ppm is > 5%.

In the case of `COC(=O)c1oc2ccc(C(F)(F)F)cc2c1NC(=O)C(F)(F)F` [Compound 65], in the test on Nicotiana benthamiana, the relative leaf area (% of untreated control) at 0.1 ppm is ≥ 5%.

In the case of `COC(=O)c1oc2ccc(C(F)(F)F)cc2c1NS(C)(=O)=O` [Compound 67], the change in vivo at 0.1 ppm in test [1] is > 5%.

For the molecule `COC(=O)c1oc2ccc(C(F)(F)F)cc2c1NS(=O)(=O)c1ccccc1` [Compound 68], the relative leaf area (% of untreated control) at 0.1 ppm in the test on Nicotiana benthamiana was ≥ 5%. Moreover, the change in vivo at 0.1 ppm in test [1] is > 5%.

With `O=C(O)c1oc2ccc(C(F)(F)F)cc2c1C(F)(F)F` [Compound 69], the relative leaf area (% of untreated control) at 0.1 ppm with Nicotiana benthamiana was ≥ 5%.

In the case of `COC(=O)c1oc2ccc(C(F)(F)F)cc2c1C(F)(F)F` [Compound 70], the relative leaf area (% of untreated control) at 0.1 ppm in the test on Nicotiana benthamiana was ≥ 5%.

In the case of `CCOC(=O)c1oc2ccc(C(F)(F)F)cc2c1C(F)(F)F` [Compound 71], the relative leaf area (% of untreated control) at 0.1 ppm in the test on Nicotiana benthamiana was ≥ 5%. Also, the change in vivo at 0.1 ppm in test [1] is > 5%.

Take `O=C(OCc1ccccc1)c1oc2ccc(C(F)(F)F)cc2c1C(F)(F)F` [Compound 73]: the relative leaf area (% of untreated control) at 0.1 ppm with Nicotiana benthamiana was ≥ 5%. In test [1], the change in vivo at 0.1 ppm was > 5%.

Take `NC(=O)c1oc2ccc(C(F)(F)F)cc2c1C(F)(F)F` [Compound 74]: in the test on Nicotiana benthamiana, the relative leaf area (% of untreated control) at 0.1 ppm was ≥ 5%. The change in vivo at 0.1 ppm in test [1] is > 5%.

For `CNC(=O)c1oc2ccc(C(F)(F)F)cc2c1C(F)(F)F` [Compound 75], the change in vivo at 0.1 ppm in test [1] is > 5%.

Turning to `O=C(Nc1ccccc1)c1oc2ccc(C(F)(F)F)cc2c1C(F)(F)F` [Compound 76], the relative leaf area (% of untreated control) at 0.1 ppm in the test on Nicotiana benthamiana was ≥ 5%. Also, the change in vivo at 0.1 ppm in test [1] was > 5%.

Take `O=C(NCc1ccccc1)c1oc2ccc(C(F)(F)F)cc2c1C(F)(F)F` [Compound 77]: the relative leaf area (% of untreated control) at 0.1 ppm in the test on Nicotiana benthamiana is ≥ 5%.

Turning to `O=C(O)c1cc2cc(Br)ccc2o1` [Compound 79], in the test on Nicotiana benthamiana, the relative leaf area (% of untreated control) at 0.1 ppm was ≥ 5%. In addition, the change in vivo at 0.1 ppm in test [1] was > 5%.

Consider `CCOC(=O)c1oc2cccc(O)c2c1C` [Compound 80], for which the relative leaf area (% of untreated control) at 0.1 ppm with Nicotiana benthamiana is ≥ 5%. Also, the change in vivo at 0.1 ppm in test [1] was > 5%.

Take `COC(=O)c1oc2ccccc2c1C(F)(F)F` [Compound 83]: the change in vivo at 0.1 ppm in test [1] is > 5%.

As to `NC(=O)c1oc2ccccc2c1C(F)(F)F` [Compound 85], in the test on Nicotiana benthamiana, the relative leaf area (% of untreated control) at 0.1 ppm is ≥ 5%.

Consider `O=C(O)c1nc2c(F)cc(F)cc2s1` [Compound 86], for which, in the test with Nicotiana benthamiana, the relative leaf area (% of untreated control) at 0.1 ppm is ≥ 5%.
